The record followed here is patent US9724318B2, “Compositions for improving mental concentration” (priority 2001, dated 2017).

The nature of this data set: acute toxic test using a mouse, oral administration. In kind it is in vivo. Particulars: oral administration at 5 g/kg. An excerpt: The theanine used in the present invention has high safety. […] Also, especially L-theanine is known as a main component of umami (tastiness) of the green tea, and is also used as a food additive giving umami, without the limitation of its added amount under the regulation for food hygiene. Moreover, contrary to the conventional drugs, since there is no adverse action by theanine at all, the mind-concentration is safely and effectively achieved according to the composition of the present invention, whereby working efficiency, learning efficiency or the like, or sports performance can be improved.

For `CCNC(=O)CC[C@H](N)C(=O)O` [theanine, γ-glutamyl ethylamide], the “abnormalities in the general states, weight and the like” value was “no abnormalities”; the “cases of death in acute toxic test” value is “no cases of death”.
